What all share (assay type): cell-based
The subject of one series is HIV. The experiment in a line: HIV Suppression test, viral antigen (core protein p24, sandwich ELISA) in peripheral human lymphocytes. The conditions noted are these: Human immunodeficiency virus 1, Lymphocyte, 96 h; Concn. 0.1 μM; read-out: % Inhibition on Day 4 after infection, Viral Antigen. As for the experimental part:
Peripheral human lymphocytes were prepared, cultivated, and harvested as above. Following the determination of the lymphocyte surface markers, unstimulated and mitogen stimulated cells were combined in a ratio of 1:2.
Under safety conditions these cells are infected with a standard preparation of HIV. The cells are sedimented by centrifugation. The supernatant was discarded and cells were resuspended in the HIV inoculum.
This inoculum is a liquid suspension of HIV-1 strain virus, pretested and adjusted to a titer that results in a synthesis of viral core protein p24 of >100 ng/ml at day four following infection of human lymphocytes according to the protocol.
3×10^8 lymphocytes were resuspended in 1 ml HIV inoculum and incubated at 37° C. for 60 minutes. Subsequently, the cells were washed two times with 50 ml of culture medium and resuspended in culture medium containing 10 units/ml of human recombinant interleukin-2 to yield a cell concentration of 2×10^6 cells/ml. 100 μof this cell suspension was added to each well of the microtiter plates containing the diluted solutions of the compounds. The microtiter plates were cultivated in an incubator with a humidified atmosphere and 5% CO2 at 37° C.
Accordingly, a fraction of lymphocytes was mock-infected with the same virus preparation that was heat inactivated (30 minutes at 56° C.) prior to infection.
On each of the days 2,3 and 4 post infection one of the microtiter plates which had been established in triplicate was prepared for determination of viral replication. Viral RNA is determined within the cells whereas the viral core protein p24 was detected in the supernatant of the lymphocyte culture.
Accordingly, 150 μl of supernatant were removed from each well and transferred to the well of a microtiter plate containing 50 μl/well of SDS (sodium dodecylsulfate, 0.08%). These plates were stored frozen. 50 μl of stop solution (1% SDS, 20 mM sodium acetate, pH 5.0, and 200 μg/ml heparin) were added to the cells remaining in each well. The plates were stored frozen.
The concentration of p24 synthesized by the HIV infected cells was determined by means of a sandwich ELISA, while the concentration of viral RNA was quantitated by nucleic acid hybridisation, using a ^32 P-labelled DNA probe for the gag/pol region of the viral genome. Absolute levels of viral antigen and RNA in drug treated samples were compared with untreated, virus-infected controls and the percentage inhibition calculated.
(In general: In an ELISA, binding on a coated surface is turned into a signal by an enzyme label.)

The next series relates to HSV-2. Nature of the series: Plaque Reduction Test for Herpes Simplex Virus 2 (strain MS) in MRC-5 cells. The conditions noted are these: Human alphaherpesvirus 2, MRC5. As for the experimental part:
(§1) MRC-5 cells were grown to confluence in 24 well multi-dishes (well diameter=1.5 cm). The drained cell monolayers were each infected with approximately 50 infectious particles of herpes simplex virus 1 (HSV-1; strain SC16) or herpes simplex virus 2 (HSV-2; strain MS) in 100 μl of phosphate-buffered saline. The virus was adsorbed for 1 hour at room temperature. After adsorption, residual inoculum was removed from each well and replaced with 0.5 ml of Eagle's MEM containing 5% newborn calf serum and 0.9% agarose (A37). Once the agarose had set, dilutions of the test compound, which had been prepared in Eagle's MEM (containing 5% newborn calf serum), were added, each well receiving 0.5 ml of liquid overlay. The test compound was diluted to give the following series of concentrations: 200, 60, 20, 6 . . . 0.06 μg/ml; final concentrations in the assay ranged, therefore, between 100 μg/ml and 0.03 μg/ml. The infected cultures were incubated at 37° C. in a humidified atmosphere of 5% CO2 until plaques were clearly visible (usually 1 day).
(§2) Cultures from 1 and 2 were fixed in formal saline, the agarose overlays were carefully washed off, and then the cell monolayers were stained with carbol fuchsin. A stereo microscope was used to count plaques. The IC50 (concentration of drug which inhibits the number of plaques formed by 50% relative to the number of plaques observed in virus control monolayers) of the test compound was calculated. In addition, the monolayers were examined for evidence of drug-induced cytotoxicity; the minimum concentration at which cytotoxicity occurs was recorded.
(In general: Plaque reduction counts the foci of infection that form in a cell layer.)

Series [1] can be described thus: Cytotoxicity for the cell monolayers in the FIV test. As to conditions: cat, crandell feline kidney cells, no cytotoxicity noted with concentrations up to this value, read-out: cytotoxicity for the cell monolayers. As for the experimental part: (§3) Drug stocks were diluted to the appropriate concentration, in medium (e.g. 10 mg/ml to 200 μg/ml). 150 μl of each drug was dispersed in triplicate, across the top row of a microtitre plate (150 μl of media for virus and cell control, vc and cc). 100 μl of medium was dispersed into all other wells. The wells were serially diluted moving down the plate, removing 50 μl from each well and transferring to the next row. 50 μl was discarded from the bottom wells.
(§4) Trypsinisation was carried out from a confluent cell monolayer of Crandell Feline Kidney cells, in 10% trypsin, followed by resuspension in media at 1×10^6 per ml, ensuring that a single cell suspension is achieved. (Media: 90% 1×RPMI, 25 mM hepes buffer; 10% Foetal calf serum; 2% Glutamine; 2% penecillin/streptomycin.)
(§5) FIV Glasgow 8 virus was diluted to 4× the required virus challenge in medium (40 TCID50 /ml). The virus infected medium was mixed with an equal volume of cell suspension, 100 μl of which was aliquoted into each well of the drug plate, except cell control. 100 μl of cell suspension at 5×10^4 per ml was added to the latter. This gives a final cell concentration of 2.5×10^4 per ml, and drug range 100-0.03 μg/ml. The plates were incubated at 37° C., 5% CO2 in an air humidified incabator for 11-14 days. The cells were fixed by immersing the plates in formoli saline (10% formaldehyde; 10% 1.5M NaCl; 80% water) for 1 hour minimum. The cells were stained with 10% crystal violet for 15 minutes.
(§6) The assay was scored by looking for presence of syncitia and, virus induced cytopathic effect in the cell monolayers, under a microscope. Results are given as the minimum concentration of drug inhibiting syncitial production, minimum inhibitory concentration, MIC.

Another series has as its system FIV. Nature of the series: Test for Feline Immunodeficiency Virus (FIV Glasgow 8) in Crandell Feline Kidney cells. As to conditions: read-out: MIC (minimum concentration of drug inhibiting syncitial production). As for the experimental part: as §3, §4, §5, §6
The test system of a further series is HSV-1. The experiment in a line: Plaque Reduction Test for Herpes Simplex Virus 1 (strain SC16) in MRC-5 cells. The conditions noted are these: Human alphaherpesvirus 1, MRC5. As for the experimental part:
as §1, §2

The test system of the next series is VZV. The experiment in a line: Plaque Reduction Test for Varicella-Zoster Virus (Ellen strain) in MRC-5 cells. The conditions noted are these: Human alphaherpesvirus 3, MRC5. As for the experimental part:
as §1, with “varicella zoster” for “herpes simplex”, “(VZV; Ellen strain)” for “1 (HSV-1; strain SC16) or herpes simplex virus 2 (HSV-2; strain MS)”, “heat-inactivated foetal” for “newborn”, “(5 or 6 days).” for “(usually 1 day).”
as §2

The results in this text go back to US5356886A, “Antiviral phosphono-alken derivatives of purines” (Beecham Group p.l.c., priority 1990, dated 1994).

Molecules are shown by their SMILES. Converted amounts (≈) assume the structure as drawn.

Regarding `Nc1nc2c(ncn2OCC/C=C/P(=O)(O)O)c(=O)[nH]1` [Example 1, (E)-9-(4-phosphonobut-3-enyloxy)guanine], the inhibition at 0.1 µM in the series with HIV was 93%. Also, the IC50 in the series on HSV-2, with HSV-1 and in the series with VZV was less than 3 µg/mL each time. Also, the MCC in series [1] is more than 100 µg/mL. In addition, the MIC in the series on FIV came out at 0.01 µg/mL (≈ 0.0332 µM).

As usually defined, the inhibition is the drop in the measured response relative to a control, in per cent. A word on the IC50: it is the concentration at which inhibition is half-maximal.
